In ChEMBL document CHEMBL3525955, “Glucuronidation of the red clover isoflavone irilone by liver microsomes from different species and human UDP-glucuronosyltransferases” (Drug Metab Dispos, 2011):
Values belong to the compound of their own block, whether it stands above or below them.

Experiments:
Format in all cases: ADME
[1] = molecular target: T1, UDP-glucuronosyltransferase 1A10 (Homo sapiens, UniProt Q9HAW8); test: Activity of human recombinant UGT1A10 at 100 uM; settings: recombinant enzyme
T1 sequence (Q9HAW8 whole entry): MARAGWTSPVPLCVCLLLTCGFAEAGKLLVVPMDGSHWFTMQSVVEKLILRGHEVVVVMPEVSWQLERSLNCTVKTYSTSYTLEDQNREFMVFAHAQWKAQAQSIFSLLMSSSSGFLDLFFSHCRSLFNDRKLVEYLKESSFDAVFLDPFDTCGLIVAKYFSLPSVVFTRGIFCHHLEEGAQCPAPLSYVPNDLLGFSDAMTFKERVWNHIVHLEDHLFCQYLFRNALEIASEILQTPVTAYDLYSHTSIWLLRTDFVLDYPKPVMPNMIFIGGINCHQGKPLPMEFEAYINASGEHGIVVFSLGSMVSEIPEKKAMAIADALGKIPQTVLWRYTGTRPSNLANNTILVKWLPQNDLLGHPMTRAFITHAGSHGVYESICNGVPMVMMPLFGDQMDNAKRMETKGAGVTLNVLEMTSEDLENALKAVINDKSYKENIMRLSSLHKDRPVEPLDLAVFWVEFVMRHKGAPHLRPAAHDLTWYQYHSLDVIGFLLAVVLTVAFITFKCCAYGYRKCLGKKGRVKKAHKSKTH

[2] = molecular target: T2, UDP-glucuronosyltransferase 1A9 (Homo sapiens, UniProt O60656); test: Activity of human recombinant UGT1A9 at 100 uM; settings: recombinant enzyme
T2 sequence (O60656 whole entry): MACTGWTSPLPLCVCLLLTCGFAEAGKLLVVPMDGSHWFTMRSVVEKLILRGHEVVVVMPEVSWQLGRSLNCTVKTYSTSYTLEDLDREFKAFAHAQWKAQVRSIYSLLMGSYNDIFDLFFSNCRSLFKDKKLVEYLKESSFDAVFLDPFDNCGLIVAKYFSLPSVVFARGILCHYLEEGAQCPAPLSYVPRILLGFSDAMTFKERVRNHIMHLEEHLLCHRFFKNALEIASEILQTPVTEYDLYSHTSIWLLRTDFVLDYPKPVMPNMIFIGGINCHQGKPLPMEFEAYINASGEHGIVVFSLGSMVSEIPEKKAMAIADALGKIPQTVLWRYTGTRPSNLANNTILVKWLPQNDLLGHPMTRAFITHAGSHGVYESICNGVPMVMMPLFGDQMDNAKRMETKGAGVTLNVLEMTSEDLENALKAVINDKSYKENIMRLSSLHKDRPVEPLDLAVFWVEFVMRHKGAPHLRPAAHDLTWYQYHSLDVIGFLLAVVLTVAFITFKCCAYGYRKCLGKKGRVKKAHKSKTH

[3] = molecular target: T3, UDP-glucuronosyltransferase 1A8 (Homo sapiens, UniProt Q9HAW9); test: Drug level assessed as human recombinant UGT1A8-mediated glucuronidation treated with 25 uM irilone incubated for 5 mins prior to UDPGA addition measured after 90 mins by HPLC-DAD analysis; settings: recombinant enzyme, 1.5 h
T3 sequence (Q9HAW9 whole entry): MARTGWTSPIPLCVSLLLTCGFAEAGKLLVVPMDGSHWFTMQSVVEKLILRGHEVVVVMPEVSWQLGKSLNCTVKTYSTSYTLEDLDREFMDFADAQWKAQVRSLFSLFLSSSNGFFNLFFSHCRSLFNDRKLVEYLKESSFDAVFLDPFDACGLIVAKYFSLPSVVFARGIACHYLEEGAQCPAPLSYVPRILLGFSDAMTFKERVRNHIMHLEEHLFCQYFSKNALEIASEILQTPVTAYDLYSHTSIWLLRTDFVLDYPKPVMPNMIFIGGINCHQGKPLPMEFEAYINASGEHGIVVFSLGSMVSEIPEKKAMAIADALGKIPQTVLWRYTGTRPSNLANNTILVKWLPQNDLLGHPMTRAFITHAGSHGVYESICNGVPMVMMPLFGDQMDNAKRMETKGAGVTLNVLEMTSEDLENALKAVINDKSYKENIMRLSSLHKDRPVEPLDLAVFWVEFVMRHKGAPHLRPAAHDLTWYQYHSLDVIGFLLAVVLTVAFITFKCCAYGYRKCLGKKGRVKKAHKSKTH

[4] = molecular target: T2, UDP-glucuronosyltransferase 1A9; test: Drug level assessed as human recombinant UGT1A9-mediated glucuronidation formation treated with irilone incubated for 5 mins prior to UDPGA addition measured after 90 mins by HPLC-DAD analysis; settings: recombinant enzyme, 1.5 h
[5] = molecular target: T4, UDP-glucuronosyltransferase 1A7 (Homo sapiens, UniProt Q9HAW7); test: Drug level assessed as human recombinant UGT1A7-mediated glucuronidation treated with 25 uM irilone incubated for 5 mins prior to UDPGA addition measured after 90 mins by HPLC-DAD analysis; settings: recombinant enzyme, 1.5 h
T4 sequence (Q9HAW7 whole entry): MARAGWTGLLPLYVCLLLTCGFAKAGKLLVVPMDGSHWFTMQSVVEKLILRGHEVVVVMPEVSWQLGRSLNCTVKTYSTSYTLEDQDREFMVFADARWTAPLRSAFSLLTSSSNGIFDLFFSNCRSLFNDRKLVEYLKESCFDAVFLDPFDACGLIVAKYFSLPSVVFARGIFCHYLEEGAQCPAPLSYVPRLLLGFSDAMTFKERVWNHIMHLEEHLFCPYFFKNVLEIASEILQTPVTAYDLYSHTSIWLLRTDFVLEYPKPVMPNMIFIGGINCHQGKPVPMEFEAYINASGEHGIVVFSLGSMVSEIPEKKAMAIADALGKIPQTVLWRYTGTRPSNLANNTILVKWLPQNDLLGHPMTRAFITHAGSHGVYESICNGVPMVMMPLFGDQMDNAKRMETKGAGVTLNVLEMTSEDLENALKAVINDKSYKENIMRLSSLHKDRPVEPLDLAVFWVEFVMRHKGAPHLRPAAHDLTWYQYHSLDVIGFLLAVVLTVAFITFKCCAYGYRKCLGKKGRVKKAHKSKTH

[6] = molecular target: T5, UDP-glucuronosyltransferase 1A1 (Homo sapiens, UniProt P22309); test: Drug level assessed as human recombinant UGT1A1-mediated glucuronidation treated with 25 uM irilone incubated for 5 mins prior to UDPGA addition measured after 90 mins by HPLC-DAD analysis; settings: recombinant enzyme, 1.5 h
T5 sequence (P22309 whole entry): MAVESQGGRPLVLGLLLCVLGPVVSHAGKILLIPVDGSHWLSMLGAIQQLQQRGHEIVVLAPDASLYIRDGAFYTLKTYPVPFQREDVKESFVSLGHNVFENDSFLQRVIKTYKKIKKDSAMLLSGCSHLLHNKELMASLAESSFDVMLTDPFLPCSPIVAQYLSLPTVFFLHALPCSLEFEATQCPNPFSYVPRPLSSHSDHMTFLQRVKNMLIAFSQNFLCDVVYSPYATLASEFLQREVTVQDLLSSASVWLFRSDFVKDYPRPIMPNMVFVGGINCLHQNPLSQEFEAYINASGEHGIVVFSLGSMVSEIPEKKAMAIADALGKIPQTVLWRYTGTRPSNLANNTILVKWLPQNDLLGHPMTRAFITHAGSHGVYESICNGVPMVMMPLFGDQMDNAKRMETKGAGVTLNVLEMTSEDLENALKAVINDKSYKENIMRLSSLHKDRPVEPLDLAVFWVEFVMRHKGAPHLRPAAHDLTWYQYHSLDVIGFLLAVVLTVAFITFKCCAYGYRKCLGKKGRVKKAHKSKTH

[7] = molecular target: T1, UDP-glucuronosyltransferase 1A10; test: Activity of human recombinant UGT1A10 assessed as […]-O-4'-monoglucuronide formation incubated for 5 mins prior to UDPGA addition measured after 90 mins by HPLC-DAD analysis; settings: recombinant enzyme, 1.5 h
[8] = molecular target: T2, UDP-glucuronosyltransferase 1A9; test: Activity of human recombinant UGT1A9 assessed as […]-O-4'-monoglucuronide formation incubated for 5 mins prior to UDPGA addition measured after 90 mins by HPLC-DAD analysis; settings: recombinant enzyme, 1.5 h

Activity [1]: 0.5 nmol/mg/min | Activity [2]: 0.5 nmol/mg/min
SMILES: O=c1c(-c2ccc(O)cc2)coc2cc(O)cc(O)c12 [GENISTEIN]

Activity [1]: 0.5 nmol/mg/min | Activity [2]: 0.5 nmol/mg/min
SMILES: O=c1c(-c2ccc(O)cc2)coc2cc(O)ccc12 [DAIDZEIN]

Drug metabolism [3]: metabolite_detected | Drug metabolism [4]: metabolite_detected | Drug metabolism [5]: metabolite_detected | Drug metabolism [6]: metabolite_detected
SMILES: O=C(O)[C@H]1O[C@@H](Oc2c3c(cc4occ(-c5ccc(O)cc5)c(=O)c24)OCO3)[C@H](O)[C@@H](O)[C@@H]1O

Drug metabolism [7]: metabolite_detected | Drug metabolism [8]: metabolite_not_detected
SMILES: COc1c2c(cc3occ(-c4ccc(O)cc4)c(=O)c13)OCO2 [IRISOLONE]
